Experimental data published in ChEMBL document CHEMBL6071152, “Design, synthesis, and biological evaluation of oridonin derivatives as novel NLRP3 inflammasome inhibitors for the treatment of acute lung injury” (Eur J Med Chem, 2024).
The source made the active and inactive calls. The calls are words filed in the database; no cut-off is given here.

Key:
[1] = biological target: NACHT, LRR and PYD domains-containing protein 3 (Mus musculus) (UniProt Q8R4B8); assay: Inhibition of NLRP3 inflammasome priming in ICR mouse BMDM assessed as inhibition of pro-caspase-1 expression in cell supernatant at 0.2 to 5 uM pretreated with compound for 1 hr followed by stimulation with LPS for 3 hrs and later incubated with ATP for 30 mins by western blot analysis; format: cell-based; settings: dose 0.2-5 µM, time 4.5 hrs
[2] = system: Mus musculus; assay: (§1) Anti-inflammatory activity against LPS-stimulated acute lung injury C57BL/6 mouse model assessed as decrease in TNF-alpha mRNA expression in right lung at 0.1 to 1 mg/kg, ip treated for 3 days and on third day administered with LPS at 30 mins post-compound challenge and measured after 12 hrs by RT-qPCR analysis; format: functional, organism-based; settings: dose 0.1-1 mg/kg, time 3.5 day
[3] = biological target: NACHT, LRR and PYD domains-containing protein 3 (Mus musculus) (UniProt Q8R4B8); assay: Inhibition of NLRP3 inflammasome activation in ICR mouse BMDM assessed as inhibition of LPS/ATP-stimulated caspase-1 expression in cell supernatant treated for 3 hrs with LPS followed by incubation with compound for 1 hr and later stimulated with ATP for 0.5 hrs by western blot analysis; format: cell-based; settings: dose 0.2-5 µM, time 1.5 hrs
[4] = system: Mus musculus; assay: as §1, with “IL-6” for “TNF-alpha”; format: functional, organism-based; settings: dose 0.1-1 mg/kg, time 3.5 day
[5] = biological target: NACHT, LRR and PYD domains-containing protein 3 (Mus musculus) (UniProt Q8R4B8); assay: Inhibition of NLRP3 inflammasome priming in ICR mouse BMDM assessed as inhibition of ASC expression in cell supernatant at 0.2 to 5 uM pretreated with compound for 1 hr followed by stimulation with LPS for 3 hrs and later incubated with ATP for 30 mins by western blot analysis; format: cell-based; settings: dose 0.2-5 µM, time 4.5 hrs
[6] = biological target: NACHT, LRR and PYD domains-containing protein 3 (Mus musculus, UniProt Q8R4B8); assay: Inhibition of NLRP3 inflammasome activation in ICR mouse BMDM assessed as inhibition of LPS/ATP-stimulated IL-1 beta production in cell supernatant treated for 3 hrs with LPS followed by incubation with compound for 1 hr and later stimulated with ATP for 0.5 hrs by ELISA; format: cell-based
[7] = system: Mus musculus; assay: as §1, with “IL-1 beta” for “TNF-alpha”; format: functional, organism-based; settings: dose 0.1-1 mg/kg, time 3.5 day
[8] = biological target: NACHT, LRR and PYD domains-containing protein 3 (Mus musculus) (UniProt Q8R4B8); assay: Inhibition of NLRP3 inflammasome priming in ICR mouse BMDM assessed as inhibition of pro-IL-1 beta expression in cell supernatant at 0.2 to 5 uM pretreated with compound for 1 hr followed by stimulation with LPS for 3 hrs and later incubated with ATP for 30 mins by western blot analysis; format: cell-based; settings: dose 0.2-5 µM, time 4.5 hrs
[9] = biological target: T1, Interferon-inducible protein AIM2 (Mus musculus) (UniProt Q91VJ1); assay: (§2) Inhibition of AIM2 inflammasome activation in ICR mouse BMDM assessed as inhibition of poly(dA:dT)-stimulated caspase-1 expression in cell supernatant at 1 uM treated for 3 hrs with LPS followed by incubation with compound for 1 hr and later cells transfected with poly(dA:dT) for 4 hrs by western blot analysis; format: cell-based; settings: time 5.0 hrs
T1 sequence (whole entry): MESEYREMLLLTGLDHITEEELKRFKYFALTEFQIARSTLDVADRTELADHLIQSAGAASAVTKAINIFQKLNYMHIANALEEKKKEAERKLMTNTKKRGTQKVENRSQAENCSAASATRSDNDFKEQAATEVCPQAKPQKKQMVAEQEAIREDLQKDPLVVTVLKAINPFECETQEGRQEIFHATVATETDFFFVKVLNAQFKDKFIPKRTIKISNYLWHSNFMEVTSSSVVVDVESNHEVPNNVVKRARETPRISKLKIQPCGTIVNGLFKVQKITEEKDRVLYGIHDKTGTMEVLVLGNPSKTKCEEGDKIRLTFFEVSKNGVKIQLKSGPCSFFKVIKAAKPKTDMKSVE

[10] = biological target: NACHT, LRR and PYD domains-containing protein 3 (Mus musculus) (UniProt Q8R4B8); assay: Inhibition of NLRP3 inflammasome priming in ICR mouse BMDM assessed as inhibition of LPS/ATP-stimulated TNF-alpha secretion in cell supernatant at 0.2 to 5 uM treated for 3 hrs with LPS followed by incubation with compound for 1 hr and later stimulated with ATP for 0.5 hrs by ELISA; format: cell-based; settings: dose 0.2-5 µM, time 1.5 hrs
[11] = biological target: NACHT, LRR and PYD domains-containing protein 3 (Mus musculus) (UniProt Q8R4B8); assay: Inhibition of NLRP3 inflammasome priming in ICR mouse BMDM assessed as inhibition of pro-IL-1 beta protein expression in cell lysate at 0.2 to 5 uM treated for 3 hrs with LPS followed by incubation with compound for 1 hr and later stimulated with ATP for 0.5 hrs by western blot analysis; format: subcellular; settings: dose 0.2-5 µM, time 1.5 hrs
[12] = system: Mus musculus; assay: as §1, with “in IL-1 beta” for “in TNF-alpha mRNA”, “to 10” for “to 1”, “by western blot” for “by RT-qPCR”; format: functional, organism-based; settings: dose 0.1-10 mg/kg, time 3.5 day
[13] = biological target: NACHT, LRR and PYD domains-containing protein 3 (Mus musculus) (UniProt Q8R4B8); assay: Inhibition of NLRP3 inflammasome priming in ICR mouse BMDM assessed as inhibition of pro-caspase-1 expression in cell lysate at 1 uM treated for 3 hrs with LPS followed by incubation with compound for 1 hr and later stimulated with nigericin for 0.5 hrs by western blot analysis; format: subcellular; settings: time 1.5 hrs
[14] = biological target: NACHT, LRR and PYD domains-containing protein 3 (Mus musculus) (UniProt Q8R4B8); assay: Inhibition of NLRP3 inflammasome priming in ICR mouse BMDM assessed as inhibition of pro-caspase-1 protein expression in cell lysate at 1 uM treated for 3 hrs with LPS followed by incubation with compound for 1 hr and later stimulated with MSU for 4 hrs by western blot analysis; format: subcellular; settings: time 5.0 hrs
[15] = biological target: T1, Interferon-inducible protein AIM2 (Mus musculus); assay: as §2, with “IL-1 beta” for “caspase-1”; format: cell-based; settings: time 5.0 hrs
[16] = biological target: NACHT, LRR and PYD domains-containing protein 3 (Mus musculus) (UniProt Q8R4B8); assay: Inhibition of NLRP3 inflammasome activation in ICR mouse BMDM assessed as inhibition of LPS/MSU-stimulated IL-1 beta expression in cell supernatant at 1 uM treated for 3 hrs with LPS followed by incubation with compound for 1 hr and later stimulated with MSU for 4 hrs by western blot analysis; format: cell-based; settings: time 5.0 hrs
[17] = biological target: NLR family CARD domain-containing protein 4 (Mus musculus) (UniProt Q3UP24); assay: Inhibition of NLRC4 inflammasome activation in ICR mouse BMDM assessed as inhibition of FLA-ST-stimulated caspase-1 expression in cell supernatant at 1 uM treated for 3 hrs with LPS followed by incubation with compound for 1 hr and later stimulated with FLA-ST for 2 hrs by western blot analysis; format: cell-based
[18] = system: Mus musculus; assay: Anti-inflammatory activity against LPS-stimulated acute lung injury C57BL/6 mouse model assessed as decrease in weight loss at 0.1 to 1 mg/kg, ip treated for 3 days and on third day administered with LPS at 30 mins post-compound challenge; format: functional, organism-based; settings: dose 0.1-1 mg/kg, time 3.0 day
[19] = system: Mus musculus; assay: Anti-inflammatory activity against LPS-stimulated acute lung injury C57BL/6 mouse model assessed as decrease in IL-6 level in BALF at 0.1 to 1 mg/kg, ip treated for 3 days and on third day administered with LPS at 30 mins post-compound challenge and measured after 12 hrs by ELISA; format: functional, organism-based; settings: dose 0.1-1 mg/kg, time 3.5 day
[20] = biological target: NACHT, LRR and PYD domains-containing protein 3 (Mus musculus) (UniProt Q8R4B8); assay: Inhibition of NLRP3 inflammasome activation in ICR mouse BMDM assessed as inhibition of LPS/MSU-stimulated caspase-1 expression in cell supernatant at 1 uM treated for 3 hrs with LPS followed by incubation with compound for 1 hr and later stimulated with MSU for 4 hrs by western blot analysis; format: cell-based; settings: time 5.0 hrs
[21] = system: Mus musculus; assay: as §1, with “in inflammatory cell infiltration” for “in TNF-alpha mRNA expression”, “at 1” for “at 0.1”, “to 10” for “to 1”, “by Hematoxylin-Eosin staining” for “by RT-qPCR”; format: functional, organism-based; settings: dose 1-10 mg/kg, time 3.5 day

Chain of NACHT, LRR and PYD domains-containing protein 3 (Mus musculus) (Q8R4B8 whole entry, the tested form may be a part): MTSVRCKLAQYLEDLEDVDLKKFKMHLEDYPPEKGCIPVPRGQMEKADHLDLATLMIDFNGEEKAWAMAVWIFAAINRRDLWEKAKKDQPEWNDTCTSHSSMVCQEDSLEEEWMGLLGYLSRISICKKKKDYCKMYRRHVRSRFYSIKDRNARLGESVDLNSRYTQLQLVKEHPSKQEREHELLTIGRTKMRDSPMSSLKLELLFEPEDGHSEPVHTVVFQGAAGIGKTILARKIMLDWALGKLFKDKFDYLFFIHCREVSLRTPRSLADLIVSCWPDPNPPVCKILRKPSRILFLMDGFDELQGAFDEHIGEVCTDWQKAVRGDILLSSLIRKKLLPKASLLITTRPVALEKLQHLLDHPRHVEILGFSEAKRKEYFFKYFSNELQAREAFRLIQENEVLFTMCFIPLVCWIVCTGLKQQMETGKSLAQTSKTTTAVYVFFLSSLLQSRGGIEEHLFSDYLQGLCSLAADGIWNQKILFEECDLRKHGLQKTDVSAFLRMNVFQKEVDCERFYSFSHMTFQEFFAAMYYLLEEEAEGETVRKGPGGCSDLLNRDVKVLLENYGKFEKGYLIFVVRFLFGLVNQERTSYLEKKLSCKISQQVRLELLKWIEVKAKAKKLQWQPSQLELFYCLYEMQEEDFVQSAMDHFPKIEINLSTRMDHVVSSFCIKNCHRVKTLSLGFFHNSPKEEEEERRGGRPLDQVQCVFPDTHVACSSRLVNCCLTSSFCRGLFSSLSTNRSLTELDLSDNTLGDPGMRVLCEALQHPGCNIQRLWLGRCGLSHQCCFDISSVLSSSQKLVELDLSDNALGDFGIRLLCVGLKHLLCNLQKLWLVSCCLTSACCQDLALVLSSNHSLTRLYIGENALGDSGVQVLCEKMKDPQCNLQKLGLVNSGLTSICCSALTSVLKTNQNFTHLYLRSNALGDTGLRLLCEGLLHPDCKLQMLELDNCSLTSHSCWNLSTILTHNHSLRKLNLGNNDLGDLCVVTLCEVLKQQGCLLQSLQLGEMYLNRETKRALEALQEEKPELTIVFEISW
Chain of NACHT, LRR and PYD domains-containing protein 3 (Q8R4B8 whole entry, the tested form may be a part): as above
Chain of NLR family CARD domain-containing protein 4 (Mus musculus) (Q3UP24 whole entry, the tested form may be a part): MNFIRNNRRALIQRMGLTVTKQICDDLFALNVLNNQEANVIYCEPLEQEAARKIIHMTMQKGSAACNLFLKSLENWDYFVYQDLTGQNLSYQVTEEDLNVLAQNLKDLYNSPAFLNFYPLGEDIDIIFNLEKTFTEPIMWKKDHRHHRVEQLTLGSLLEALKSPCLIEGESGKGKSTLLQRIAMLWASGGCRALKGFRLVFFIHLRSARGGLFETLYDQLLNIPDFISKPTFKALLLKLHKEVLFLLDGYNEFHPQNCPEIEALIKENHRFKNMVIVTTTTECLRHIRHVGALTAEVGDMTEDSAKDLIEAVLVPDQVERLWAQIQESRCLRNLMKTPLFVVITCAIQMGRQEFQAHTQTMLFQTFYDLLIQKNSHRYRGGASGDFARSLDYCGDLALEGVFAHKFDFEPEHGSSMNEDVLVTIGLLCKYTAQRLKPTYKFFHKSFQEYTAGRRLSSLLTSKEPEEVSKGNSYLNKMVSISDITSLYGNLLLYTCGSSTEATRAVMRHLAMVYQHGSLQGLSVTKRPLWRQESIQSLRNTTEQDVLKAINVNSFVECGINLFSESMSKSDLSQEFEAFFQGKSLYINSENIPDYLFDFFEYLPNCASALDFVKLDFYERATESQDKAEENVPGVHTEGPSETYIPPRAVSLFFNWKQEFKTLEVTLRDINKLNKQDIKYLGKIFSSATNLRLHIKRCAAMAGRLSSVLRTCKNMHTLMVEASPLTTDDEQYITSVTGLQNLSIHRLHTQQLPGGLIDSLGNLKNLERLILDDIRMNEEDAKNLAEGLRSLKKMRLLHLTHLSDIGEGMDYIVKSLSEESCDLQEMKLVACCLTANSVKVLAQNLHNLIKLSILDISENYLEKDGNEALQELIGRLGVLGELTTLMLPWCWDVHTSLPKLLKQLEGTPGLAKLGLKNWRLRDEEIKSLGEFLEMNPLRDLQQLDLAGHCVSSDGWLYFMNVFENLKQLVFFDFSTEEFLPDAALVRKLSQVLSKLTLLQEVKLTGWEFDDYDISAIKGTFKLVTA

inhibition [1]: inactive
inhibition [3]: Dose-Dependent Effect
inhibition [5]: inactive
IC50 [6]: 41.8 nM
inhibition [8]: inactive
inhibition [9]: inactive
inhibition [10]: inactive
inhibition [11]: inactive
inhibition [13]: inactive
inhibition [14]: inactive
inhibition [15]: inactive
inhibition [16]: Active
inhibition [17]: inactive
inhibition [20]: Active
Structure (SMILES): C=C1C(=O)[C@]23[C@H](OC(=O)Nc4ccc(F)cc4)[C@H]1CC[C@H]2[C@]12C=CCC(C)(C)[C@H]1[C@H](O)[C@@]3(O)OC2
Activity [2]: Dose-Dependent Effect
Activity [4]: Dose-Dependent Effect
Activity [7]: Dose-Dependent Effect
Activity [12]: Active
Activity [18]: Active
Activity [19]: Dose-Dependent Effect
Activity [21]: Active
